Each structure is given as a SMILES string. The source made the active and inactive calls. Cut-off read from the data, not from the text of the source, for most assays here: actives have a measured EC50 and inactives only a lower limit.

48 molecules from ChEMBL document CHEMBL1201862, “PubChem BioAssay data set” (2004) can be followed below.

The test system of assay [1] is Streptococcus sp. 'group A'. The experiment in a line: growth inhibition of control SK(-) GAS strain, dose response, counter-screen for streptokinase expression inhibitor project, luminescence, kanamycin, BacTiterGlo, confirmation (AID 1900). Format: functional, organism-based.
For a further assay, the target named is T1, Streptokinase A (Streptococcus pyogenes serotype M1, UniProt P10520).
T1 sequence (P10520 whole entry): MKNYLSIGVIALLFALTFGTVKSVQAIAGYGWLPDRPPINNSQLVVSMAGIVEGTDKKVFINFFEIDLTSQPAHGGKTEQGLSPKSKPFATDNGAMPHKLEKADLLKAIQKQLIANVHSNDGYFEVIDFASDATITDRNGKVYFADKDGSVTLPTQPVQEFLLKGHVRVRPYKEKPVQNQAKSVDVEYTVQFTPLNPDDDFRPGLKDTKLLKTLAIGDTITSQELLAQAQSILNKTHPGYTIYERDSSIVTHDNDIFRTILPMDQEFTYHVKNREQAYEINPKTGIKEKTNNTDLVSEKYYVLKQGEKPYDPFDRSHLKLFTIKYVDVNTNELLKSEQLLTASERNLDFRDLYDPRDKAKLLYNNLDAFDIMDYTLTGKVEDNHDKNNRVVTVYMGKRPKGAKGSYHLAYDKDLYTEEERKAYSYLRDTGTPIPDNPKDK
Put plainly: S. pyogenes streptokinase expression inhibitors, potency, dose response, plasminogen activation absorbance, OD405 (AID 1914).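 Note: secreted streptokinase activity via plasminogen activation per viability signal from cell pellet.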 Format: functional, Streptococcus pyogenes M1 GAS.

The test system of the next assay is Streptococcus. The experiment in a line: Group A Streptococcus viability loss, dose response, counter-screen for streptokinase expression inhibitor project, luminescence, BacTiterGlo (AID 1915).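 Note: potency for reduction of bacterial viability or growth.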 Format: functional, organism-based. A general note: A counterscreen serves to expose hits that act by an unwanted route or on another target.
For the next assay, the target named is T2, Cytochrome P450 1A2 (Homo sapiens, UniProt P05177).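 Note: PubChem cytochrome P450 panel assay, CYP1A2 panel member.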
T2 sequence (P05177 whole entry): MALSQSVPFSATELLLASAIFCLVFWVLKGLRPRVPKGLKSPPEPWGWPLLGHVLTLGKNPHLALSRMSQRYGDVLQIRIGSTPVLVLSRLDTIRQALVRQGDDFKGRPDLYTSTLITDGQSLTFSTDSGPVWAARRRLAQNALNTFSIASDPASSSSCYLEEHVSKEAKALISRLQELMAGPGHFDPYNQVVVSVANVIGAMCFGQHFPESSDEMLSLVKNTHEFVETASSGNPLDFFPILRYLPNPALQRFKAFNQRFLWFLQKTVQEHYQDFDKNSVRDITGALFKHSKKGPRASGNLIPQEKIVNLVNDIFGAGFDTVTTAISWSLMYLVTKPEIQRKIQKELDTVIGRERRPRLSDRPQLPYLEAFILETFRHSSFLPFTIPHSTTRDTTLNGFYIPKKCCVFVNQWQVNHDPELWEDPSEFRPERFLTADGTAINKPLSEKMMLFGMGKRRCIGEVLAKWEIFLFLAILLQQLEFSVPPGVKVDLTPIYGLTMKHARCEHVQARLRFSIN

The nature of assay [2]: HEp-2 cell cytotoxicity, dose response, cytotoxicity control for RSV inhibitor project, HTS (AID 2410). To be noted: human respiratory syncytial virus. The format is functional.
A further assay concerns INS1. Put plainly: beta cell apoptosis inhibitors, cytokine rescue, dose response, luminescence, retest (AID 449756).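 Note: cell death triggered by IL-1 beta plus TNF-alpha plus IFN-gamma mixture; protective hits raise ATP signal compared with cytokine alone wells.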 Format: functional, cell-based. The note with it: Rattus norvegicus.
Assay [3] in a line: inhibitors of intracellular T. cruzi replication, confirmation, NIH3T3 host cells, beta-gal luminescence (AID 2044).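 Note: intracellular parasites grown in NIH/3T3 mouse fibroblasts as host cells; luminescent beta-galactosidase reporter signal from transgenic T. cruzi replicating inside host cells; inhibitors lower the luminescence signal.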 Format: functional, cell-based.
Assay [4] can be described thus: cytotoxicity toward NIH3T3 fibroblasts, dose response, counter-screen, cell-based, ATP luminescence, mouse fibroblasts (AID 2010).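 Note: cells exposed to compound for about 90 hours before reading.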 The format is functional.

The term EC50 denotes the concentration at which the effect is half-maximal. On to `CC(C)(C)c1ccc(OCC(=O)N2CCN(c3ncccn3)CC2)cc1`, for which the half-maximal effective concentration (EC50) (in assay [1]; on Streptokinase A; in the assay on Streptococcus) was > 150 µM (not active) each time.

In general, AC50 refers to the concentration giving half of the maximal activity seen. Regarding `COCCNC(=O)COc1ccc(Oc2ccccc2)cc1`, the AC50 at Cytochrome P450 1A2 was 25.1 µM (inconclusive).

With `CCCCc1nc2cc(C(=O)N3CCC(OCCOC)CC3)ccc2o1`, the 50% effective concentration (EC50) (in assay [1]; on Streptokinase A; in the assay on Streptococcus) was > 150 µM (not active) throughout.

For `COc1ccc(C(=O)NC(=S)NNC(=O)COc2ccccc2)cc1`, the 50% effective concentration (EC50) is 2.23 µM (active) in assay [1] and 3.64 µM (active) in the assay on Streptococcus.

As usually defined, the CC50 is the concentration at which the toxic effect on the cells reaches its halfway point. `Cc1ccc(-c2cccc(C(=O)NCCc3ccccc3)n2)c2ccccc12`: the CC50 in assay [2] is 16.2 µM (active).

On to `Cc1csc2ncnc(N3CCN(S(=O)(=O)c4cccc(C(F)(F)F)c4)CC3)c12`, for which the AC50 in the assay on INS1 is 3.86 µM (active).

Regarding `COc1ccc(/N=C2/SCC(c3ccc([N+](=O)[O-])cc3)=NN2CCO)cc1`, the CC50 in assay [2] is 15.8 µM (active).

`Cc1ccc(-n2c(-c3ccccc3)cc(/C=N/NC(=O)CC#N)c2-c2ccccc2)cc1`: the values for the EC50 in assay [3] and in assay [4] were 1.72 µM (active) and > 60 µM (not active), respectively.

For `CCCC[C@@H]1C[C@H]1C(NC(=O)c1ccc(C(F)(F)F)cc1)c1ccc(C(=O)OC)cc1` (stereo partly specified), the concentration at half-maximal activity (AC50) at Cytochrome P450 1A2 is 15.8 µM (inconclusive).

Take `CN(Cc1ccco1)c1ncncc1-c1cccc(C#N)c1`: the AC50 on Cytochrome P450 1A2 was 12.6 µM (inconclusive).

Regarding `NC(=O)N/N=C(/CCCCCC/C(=N\NC(N)=O)c1ccccc1)c1ccccc1`, the figures for the EC50 (in assay [1]; on Streptokinase A; with Streptococcus) were 26.6 µM (active), > 150 µM (not active) and > 150 µM (not active), respectively.

For the molecule `COc1cccc(N/C(C)=C/C(=O)c2ccc(Br)cc2)c1`, the CC50 in assay [2] is 25.5 µM (active).

With `O=C(Nc1ccccc1N1CCCCC1)c1cc(S(=O)(=O)N2CCOCC2)ccc1Cl`, the CC50 in assay [2] is 21.7 µM (active).

Consider `CCOc1ccccc1CN1CCCC(CNC(=O)Cc2ccc(OC)cc2)C1` (stereo unspecified), for which the EC50 in assay [3] is 1.33 µM (active); in assay [4] it was > 60 µM (not active).

For `CCCNC(=O)CCc1c(C)nc2c(c(C)nn2-c2ccc(C)cc2)c1C`, the results for the half-maximal effective concentration (EC50) in assay [3] and in assay [4] were 1.8 µM (active) and > 60 µM (not active), respectively.

As for `COc1ccc(C(=O)CC(Nc2ccc([N+](=O)[O-])cc2)c2ccc(Cl)cc2)cc1` (stereo unspecified), the figures for the EC50 in assay [3] and in assay [4] were 2.27 µM (active) and > 60 µM (not active), respectively.

Take `COc1cccc(C(=O)OC2CCN(C)CC2)c1`: the values for the EC50 in assay [3] and in assay [4] were 0.233 µM (active) and > 30 µM (not active), respectively.

Consider `COc1ccc(CCn2c(-c3cc([N+](=O)[O-])cc([N+](=O)[O-])c3)nc3nc4ccccc4nc32)cc1OC`, for which the EC50 in assay [3] is 0.105 µM (active); in assay [4] it was > 60 µM (not active).

As to `Fc1cccc(Cc2noc(CN3CCCN(C4Cc5ccccc5C4)CC3)n2)c1`, the results for the EC50 in assay [3] and in assay [4] were 0.57 µM (active) and 45.2 µM (active), respectively.

As for `COc1cccc(C(=O)Nc2cccc(-c3nnc(-c4ccccc4)o3)c2)c1`, the EC50 was 23.2 µM (active) in assay [1], > 150 µM (not active) on Streptokinase A and 57.9 µM (active) in the assay on Streptococcus.

`CC(C)c1nc(-c2ccccc2)c(-c2ccccc2)[nH]1`: the AC50 in the assay with INS1 was 7.08 µM (active).

As for `COC(=O)C1=C(c2ccccc2OCc2ccccc2)C[C@@H]2CC[C@H]1N2C(=O)NCc1ccc([N+](=O)[O-])cc1`, the CC50 in assay [2] was 37.6 µM (active).

`CC1CCN(C(=O)CCNS(=O)(=O)c2ccc(Br)cc2)CC1`: the AC50 in the assay on INS1 is > 260 µM (inactive).

As to `COc1ccccc1NC(=O)Nc1nc(CC(=O)N2CCN(c3ccccc3OC)CC2)cs1`, in assay [2], the CC50 was 15.2 µM (active).

Turning to `Cc1cccc2c1-c1sc(C(=O)N3CCc4ccccc4C3)cc1CO2`, in assay [2], the 50% cytotoxic concentration (CC50) was 11.6 µM (active).

For `CCCN=C(S)N1CCN(c2nc(C)nc3sc4c(c23)CCCC4)CC1`, the CC50 in assay [2] is 11.2 µM (active).

`O=C1N=C(N/N=C/c2ccccc2O)SC1Cc1ccc(F)cc1` (stereo unspecified): the figures for the EC50 (in assay [1]; on Streptokinase A; in the assay on Streptococcus) were 16 µM (active), > 150 µM (not active) and > 150 µM (not active), respectively. In the assay with INS1, the AC50 is 4.67 µM (active).

As to `CCOC(=O)C1CCN(C(=O)C(=O)c2cn(CC(=O)N3CCCCCC3)c3ccccc23)CC1`, the EC50 was 0.763 µM (active) in assay [3] and > 60 µM (not active) in assay [4].

For the molecule `CCOC(=O)c1cnc2ccc(OCC)cc2c1N1CCN(c2ccccc2)CC1`, in the assay on INS1, the AC50 is 14.9 µM (active).

In the case of `CCOCC(=O)Nc1ccc([N+](=O)[O-])cc1OC`, the CC50 in assay [2] is > 50 µM (active).

As for `COc1ccc(N2CCN(C(CNS(=O)(=O)c3cc(F)ccc3F)c3cccnc3)CC2)cc1` (stereo unspecified), the EC50 in assay [3] is 0.206 µM (active); in assay [4], > 60 µM (not active).

On to `CCCCCn1c(=O)c(C(=O)Nc2ncccc2C)c(O)c2ccccc21`, for which, in the assay on INS1, the AC50 is 10.4 µM (active).

Turning to `C=CCNC(=S)N/N=C/c1ccc(OCc2ccccc2Cl)cc1`, the EC50 in assay [3] is 1.65 µM (active); in assay [4], > 30 µM (not active).

For the molecule `Cc1onc(-c2c(F)cccc2Cl)c1C(=O)NCc1ccc2c(c1)OCO2`, the EC50 (in assay [1]; on Streptokinase A; in the assay with Streptococcus) was > 150 µM (not active) throughout.

Turning to `O=C(CCN1CCN(C/C=C/c2ccccc2)CC1)Nc1cccc(F)c1`, the EC50 in assay [3] was 0.383 µM (active); in assay [4], 21.9 µM (active).

Regarding `CCCCOc1ccc(/C=C/C2=CC(C)(C)NC(S)=N2)cc1OCC`, the figures for the EC50 in assay [3] and in assay [4] were 0.774 µM (active) and > 60 µM (inconclusive), respectively.

Take `Clc1cccc(-c2cc3nc4c(c(N5CCN(c6cnccn6)CC5)n3n2)CCCC4)c1`: in assay [2], the CC50 was 35.2 µM (active).

Turning to `CCCCN(CC)CCNC(=O)c1cn(-c2ccc(Cl)cc2)c(=O)c2ccccc12`, the EC50 in assay [3] is 0.896 µM (active); in assay [4], > 60 µM (inconclusive).

For `COc1cc(/C(C)=C/c2ccccc2)c2c(c1)oc1ccccc12`, the EC50 in assay [1] was 2.3 µM (active); on Streptokinase A, 20.9 µM (active); in the assay on Streptococcus it was > 150 µM (not active).

As to `CCOC(=O)c1ccc(Oc2c[nH]nc2-c2ccc(OCC(=O)NN)cc2O)cc1`, the concentration giving a half-maximal response (EC50) (in assay [1]; on Streptokinase A; in the assay with Streptococcus) was > 150 µM (not active) in each case.

In the case of `Cc1cc(C)nc(SCC(=O)NC2=NN=C(c3ccc(Br)cc3)CS2)n1`, the EC50 is 2.6 µM (active) in assay [1]; > 150 µM (not active) on Streptokinase A; 1.65 µM (active) in assay [3]; > 60 µM (inconclusive) in assay [4]; 3.62 µM (active) in the assay with Streptococcus. Besides, the AC50 with INS1 was 4.78 µM (active).

For `COc1ccc2c(c1)c(CC(=O)NCc1cc([N+](=O)[O-])ccc1O)c(C)n2C(=O)c1ccc(Cl)cc1`, the EC50 is 19.1 µM (active) in assay [1], 20.2 µM (active) on Streptokinase A and > 150 µM (not active) in the assay with Streptococcus.

On to `O=C(C1=C(O)C(=O)N(Cc2ccco2)C1c1cccc(Cl)c1)c1ccco1` (stereo unspecified), for which the results for the EC50 (in assay [1]; on Streptokinase A; in the assay on Streptococcus) were 22.7 µM (active), > 150 µM (not active) and > 150 µM (not active), respectively.

For `O=C1CCC(/C=C/c2ccccc2)=NN1Cc1ccccc1Cl`, in assay [2], the cytotoxic concentration (CC50) was 27 µM (active).

Take `CC(=O)Nc1ccc(S(=O)(=O)N2c3ccccc3NC(=O)CC2C)c(Cl)c1` (stereo unspecified): in the assay with INS1, the AC50 is > 260 µM (inactive).

Take `CCOc1ccccc1OCCOCCN1CCN(Cc2ccccc2)CC1`: the EC50 in assay [3] is 0.633 µM (active); in assay [4], > 60 µM (not active).

For the molecule `CCn1c(=O)c(C(=O)NNC(=O)c2ccc(Cl)cc2Cl)c(O)c2ccccc21`, the EC50 was 3.62 µM (active) in assay [1] and 7.58 µM (active) with Streptococcus.

Take `COc1cccc(C(=O)Nc2nc(-c3ccccc3)c(-c3ccccc3)o2)c1`: the values for the 50% effective concentration (EC50) (in assay [1]; with Streptococcus) were 1.44 µM (active) and 5.62 µM (active), respectively.
